From article PMC12775124, “CUL4A-DDB1-DCAF10 is an N-recognin for N-terminally acetylated Src kinases” (Nature Communications, 2026)
Where two headings read alike, the source gives them in different places.

Tests used:
DCAF10 = assay: Peptide pull-down with quantitative MS, HeLa lysate, DCAF10; assay type: binding, human (HeLa)
Method: Beads presenting 10-residue synthetic Nt-peptides of proteins of interest in their free (Nt-free) or modified (e.g., Nt-acetylated) versions were incubated with lysates from HeLa cells, followed by MS-based quantification of retained binders (Fig. 1a).
Biotinylated 10-mer Nt-peptides (Nt-free, Nt-acetylated, and, where indicated, Nt-myristoylated; sequences in Supplementary Table 1) were synthesized with a C-terminal Lys3 spacer and biotin, immobilized on magnetic streptavidin beads, and incubated with HeLa or mouse liver lysates. After standardized washes, bound proteins were on-bead reduced/alkylated, digested with LysC/trypsin, desalted, and analysed by LC-MS in DIA mode (Orbitrap Exploris 480) as described previously[24]. Variants included endogenous Nt-sequences, swap and mutant (Ala-Ala-Ala or Nt-amino acids) peptides, and pairwise comparisons of conditions of interest.
All MS experiments were performed as independent biological triplicates. Relative protein quantification was carried out using the label-free algorithm integrated in DIA-NN[53], and statistical testing was performed in Perseus using a two-sided Student’s t test with permutation-based multiple-testing-adjusted p-values[53],[54], as specified in the figure legends. […] Volcano blots were visualized with RStudio (version 2023.06.0). […] Cell experiments were performed as biological replicates, and binding assays as independent assays. […] Data are presented as mean ± s.d. Fold changes are reported as the ratio of the normalized value for the condition of interest to the normalized control value, with mean ± s.d. computed across biological replicates.

human NatA = biological target: T1, human NatA (Homo sapiens, UniProt P41227+Q9BXJ9); assay: In vitro Nt-acetylation assay (NatA, CPM fluorescence); assay type: biochemical
T1 construct: Human NatA (hNatA) full-length (FL) was cloned; made in house; host or cells: Tnao38 insect cells (baculovirus, pFL vector)
T1 sequence (P41227 1-235): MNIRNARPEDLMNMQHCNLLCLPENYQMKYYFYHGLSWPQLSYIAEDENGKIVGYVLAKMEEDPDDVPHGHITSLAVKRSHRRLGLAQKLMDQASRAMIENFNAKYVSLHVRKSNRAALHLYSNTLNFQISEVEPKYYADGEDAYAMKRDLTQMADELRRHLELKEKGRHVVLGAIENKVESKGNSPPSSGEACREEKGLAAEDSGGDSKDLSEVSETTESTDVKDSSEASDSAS
T1 sequence (Q9BXJ9 1-866 partner): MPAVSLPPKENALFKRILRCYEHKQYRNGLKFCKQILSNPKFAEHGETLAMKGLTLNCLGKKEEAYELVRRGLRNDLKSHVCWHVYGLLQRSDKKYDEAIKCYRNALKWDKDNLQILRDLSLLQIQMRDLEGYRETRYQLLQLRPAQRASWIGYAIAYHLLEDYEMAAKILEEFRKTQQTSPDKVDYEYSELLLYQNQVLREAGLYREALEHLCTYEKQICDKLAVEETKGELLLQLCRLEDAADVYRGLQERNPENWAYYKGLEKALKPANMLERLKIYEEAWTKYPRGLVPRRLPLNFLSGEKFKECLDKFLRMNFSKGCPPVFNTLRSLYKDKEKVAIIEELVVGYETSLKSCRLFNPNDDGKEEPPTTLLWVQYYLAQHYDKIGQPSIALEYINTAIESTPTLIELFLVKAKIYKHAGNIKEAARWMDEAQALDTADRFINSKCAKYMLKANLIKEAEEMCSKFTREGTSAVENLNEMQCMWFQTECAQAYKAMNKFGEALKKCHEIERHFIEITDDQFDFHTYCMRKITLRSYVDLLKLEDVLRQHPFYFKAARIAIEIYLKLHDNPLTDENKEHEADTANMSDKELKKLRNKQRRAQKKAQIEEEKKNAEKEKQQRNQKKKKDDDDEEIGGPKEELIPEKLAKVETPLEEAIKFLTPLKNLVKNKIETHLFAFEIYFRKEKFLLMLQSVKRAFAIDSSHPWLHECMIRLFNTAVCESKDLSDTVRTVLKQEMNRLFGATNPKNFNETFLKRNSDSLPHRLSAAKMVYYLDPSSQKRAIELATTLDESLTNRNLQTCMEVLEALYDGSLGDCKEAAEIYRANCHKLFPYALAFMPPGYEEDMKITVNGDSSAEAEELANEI
Method: Gly-starting proteins can be substrates of the Nt-acetyltransferase NatA[3],[21]. Having established direct DCAF10 binding to Ac-Gly N-termini, we next asked whether SFK N-termini are bona fide NatA substrates. We developed an in vitro Nt-acetylation assay comprising purified NatA, acetyl-CoA (Ac-CoA), and the peptide of interest (Fig. 3a, b)[33]. Acetyl-group transfer was assessed using CPM [7-(diethylamino)−3-(4′-maleimidophenyl)−4-methylcoumarin], which reacts specifically with free thiol groups to produce a highly fluorescent product (excitation: 390 nm; emission: 479 nm), allowing detection of CoA production after acetyl-group transfer to the peptide (Supplementary Fig. 4e). We optimized the conditions to determine Michaelis–Menten kinetics for NatA-mediated Nt-acetylation with a target peptide ([…]) previously used for NatA assays and co-crystallization (Supplementary Fig. 4f)[34]. […] Likely, this was due to a Km even higher than that of Src, and implying that the peptide concentrations in the assay might have been insufficient for the reaction to proceed with an appreciable rate. […] Negative controls (COX17 and Ac-Lyn) produced low signals. […] Given the direct association of NatA with SFK N-termini at the ribosomal exit tunnel, however, we surmise that Nt-acetylation of SFKs in cells may proceed despite these unfavorable kinetic parameters.
The assay was performed essentially as described previously. Briefly, peptide substrates (Supplementary Table 1) were incubated with purified human NatA and acetyl-CoA; acetylation was quantified by CPM fluorescence (CoA detection), and Michaelis–Menten parameters were derived from 8-point 1:1 dilution series within the linear range (n = 4 independent enzymatic assays). Full buffer compositions, reagent concentrations, plate format, instrument settings, controls, and fitting procedures are provided in the Supplementary Methods and Tables. […]
301 Cloning, expression, and purification of human NatA
302 Human NatA (hNatA) full-length (FL) was cloned in a pFL vector expressing both
303 genes, NAA15 with a 6× C-term histidine tag (NAA15-6xHIS) and NAA102. The
304 expression was carried out in insect cells (Tnao38) for 72 h infected 1:20 with
305 baculovirus. Washed cell pellets were lysed by sonication in a lysis buffer containing 200
306 mM NaCl, 50 mM HEPES pH 8.0, 20 mM Imidazole, and 2 mM TCEP. The protein
307 purification was performed as a three-step purification, starting with an affinity nickel
308 column, followed by an ion-exchange column with a gradient of 50–300 mM NaCl, and
309 finished with size exclusion chromatography (SEC) using an S200 10/300 column. The
310 main peaks were collected, and the protein was concentrated in the SEC buffer (150 mM
311 NaCl, 50 mM HEPES pH 8.0, 1 mM EDTA). The purified hNatA was flash-frozen in
312 liquid nitrogen and stored at -80°C.
314 In vitro Nt-acetylation assay
315 The method has been described in detail previously2. Briefly, different peptides
316 (Supplementary Table 1) and concentrations (an eight-step, 1:1 dilution series for
317 Michaelis-Menten curves) as indicated were incubated with 20 nM hNatA and 80 µM Ac-
318 CoA in reaction buffer (50 mM HEPES pH 8.0, 0.5 mM EDTA, 0.005% CHAPS) for 60
319 (Src) or 120 min (Lyn), at RT in a 384-well microplate (Corning 4514) (n = 4).
320 Afterwards, the enzymatic reaction was stopped by adding 1:1 DMSO with 10 µM (final
321 concentration 5 µM) of the thiol reactive CPM (7-Diethylamino-3-
322 (4'Maleimidylphenyl)4-Methylcoumarin). After 1 h at RT, the readout was performed
323 with a Tecan Spark® Multimode Microplate Reader (excitation 390 nm, emission 479
324 nm). Background values at 0 µM peptide were subtracted, and control reactions omitting
325 NatA or Ac-CoA were performed. Dilution series of CoA incubated with 5 µM CPM were
326 used to generate a linear equation (y = 10.99*x + 81.06) to calculate acetylation velocities
327 for NatA-mediated peptide acetylation. […]

For “GSNKSKPKDAKK [Myr-Src, Nt-peptide of Src, N-myristoylated]”, the “DCAF10 binding, Nt-Ac vs Nt-Myr (in words)” value (DCAF10; HeLa lysate) was “no detectable DCAF10 binding”.
In the case of “PGLVDSNPAPKK [COX17, Pro-starting peptide from COX17, negative control, reference compound]”, the “Nt-acetylation by NatA (in words)” value (human NatA; original assay, peptide up to 160 μM) is reported as “no detectable acetylation” and the “Nt-acetylation by NatA (in words)” value (human NatA; starting peptide concentration 1 mM) is reported as “low signals”.
“GSNKSKPKDAKK [Nt-free Src, Nt-peptide of Src, Nt-free]” was tested, and the Km (human NatA; 20 nM NatA, 80 µM Ac-CoA, pH 8.0, RT, 60 min, CPM fluorescence 390/479 nm, mean ± s.d., n = 4, read-out: Km) was 144 ± 24 µM, the Km (human NatA; conclusion: poor NatA substrates, read-out: Km, summary statement) was > 100 µM and the Km (human NatA; rounded values in Peer Review File, read-out: Km, as given in rebuttal) was 143 µM.
In the case of “GCIAAAGKDSKK [Ac-Lyn^AAA, Ala5-Ala6-Ala7 mutant of Lyn peptide]”, the “log₂ difference, Ac-Lyn^WT vs Ac-Lyn^AAA, DCAF10” value (DCAF10; HeLa lysate, n = 3) is reported as −0.41.
“GAVKSKEVIRKK [Ac-THOC7^swap, THOC7 peptide carrying Lys5-Ser6-Lys7 of Lyn]” was tested, and the “Reversal of preference after swapping positions 5–7” value (DCAF10; Ac-Lyn^swap vs Ac-THOC7^swap relative to WT comparison) was ~ 133 fold and the “DCAF10 binding of swap peptide vs its WT (in words)” value (DCAF10; direct comparisons Ac-Lyn vs Ac-Lyn^swap and Ac-THOC7 vs Ac-THOC7^swap, HeLa lysate) was “increased binding”.
